The structures appear in SMILES notation. Where a name gives a salt, the structure may show the parent alone.

The target in one test is T1, human neutrophil elastase (Homo sapiens, UniProt P08246).
T1 sequence (P08246 30-267): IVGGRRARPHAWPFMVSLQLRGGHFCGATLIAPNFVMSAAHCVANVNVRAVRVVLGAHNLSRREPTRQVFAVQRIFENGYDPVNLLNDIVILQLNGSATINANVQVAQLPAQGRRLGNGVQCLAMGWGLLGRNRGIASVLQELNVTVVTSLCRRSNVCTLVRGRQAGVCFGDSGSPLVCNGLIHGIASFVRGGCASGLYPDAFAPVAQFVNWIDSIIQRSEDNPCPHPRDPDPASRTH
The test can be described thus: In vitro assay of human neutrophil elastase (HNE). The test is classed as biochemical. The note with it: 118 nM purified human neutrophil elastase, pH 8.6, 15 min incubation at 30° C., MeO-succinyl-alanyl-alanyl-prolyl-valyl-p-nitroanilide substrate; read-out: HNE IC50. Here is the method:
In Vitro Assays of Human Neutrophil Elastase
118 nM purified human neutrophil elastase
Suitable concentrations of compound under test diluted with water from a 10 mM stock solution in dimethylsulphoxide. Values above are final concentrations after the addition of substrate solution (see below).
The mixture above is incubated for fifteen minutes at 30° C. at which time the remaining elastase activity is measured for 10 minutes in a BioTek 340i plate-reader, after the addition of 0.6 mM MeO-succinyl-alanyl-alanyl-prolyl-valyl-p-nitroanilide. The rate of increase in absorbance at 405 nm is proportional to elastase activity. Enzyme activity is plotted against concentration of inhibitor and an IC50 determined using curve fitting software.
1. The compounds were tested in the in vitro elastase test described earlier in the description.
As a reminder, the IC50 is the concentration needed to halve the response being measured. Turning to `CCC[C@H]1C(=O)N(S(=O)(=O)c2cccc3cccnc23)[C@H]2CCN(S(C)(=O)=O)[C@H]12` (relative stereo) [Example 52, rel-(3R,3aR,6aS)-4-Methanesulfonyl-3-propyl-1-(quinoline-8-sulfonyl)-hexahydro-pyrrolo[3,2-b]pyrrol-2-one], the IC50 amounted to 222 nM.
Same read-out and setting: the result for `CCC[C@H]1C(=O)N(S(C)(=O)=O)[C@H]2CCN(C(=O)CCCCCCCCCN3CCOCC3)[C@H]12` (relative stereo) [Example 64, rel-(3R,3aR,6aS)-1-Methanesulfonyl-4-(10-morpholin-4-yl-decanoyl)-3-propyl-hexahydro-pyrrolo[3,2-b]pyrrol-2-one DL-tartrate] reads 26 nM; that for `CCC[C@H]1C(=O)N(S(C)(=O)=O)[C@H]2CCN(C(=O)CCCCCCCCCN(CC)CC)[C@H]12` (relative stereo) [Example 65, rel-(3R,3aR,6aS)-4-(10-Diethylamino-decanoyl)-1-methanesulfonyl-3-propyl-hexahydro-pyrrolo[3,2-b]pyrrol-2-one DL-tartrate], 66 nM.
Consider `CCC[C@H]1C(=O)N(S(C)(=O)=O)[C@H]2CCN(C(=O)CCCCCCCCCN3CCCCCC3)[C@H]12` (relative stereo) [Example 66, rel-(3R,3aR,6aS)-4-(10-Azepin-1-yl-decanoyl)-1-methanesulfonyl-3-propyl-hexahydro-pyrrolo[3,2-b]pyrrol-2-one hydrochloride], for which the IC50 was found to be 34 nM.
The same measure, in the same setting: the value for `CCC[C@H]1C(=O)N(S(C)(=O)=O)[C@H]2CCN(C(=O)CCCCCCCCCN(C)C)[C@H]12` (relative stereo) [Example 67, rel-(3R,3aR,6aS)-4-(10-Dimethylamino-decanoyl)-1-methanesulfonyl-3-propyl-hexahydro-pyrrolo[3,2-b]pyrrol-2-one DL-tartrate] was 43 nM.
As to `CCC[C@H]1C(=O)N(S(C)(=O)=O)[C@H]2CCN(C(=O)CCCCCCCCCN(C)c3ccccc3)[C@H]12` (relative stereo) [Example 68, rel-(3R,3aR,6aS)-1-Methanesulfonyl-4-[10-methyl-phenyl-amino)decanoyl]-3-propyl-hexahydro-pyrrolo[3,2-b]pyrrol-2-one hydrochloride], the IC50 was determined as 73 nM.
For the compound `CCC[C@H]1C(=O)N(S(C)(=O)=O)[C@H]2CCN(C(=O)CCCCCCCCCN3CCN(C)CC3)[C@H]12` (relative stereo) [Example 69, rel-(3R,3aR,6aS)-1-Methanesulfonyl-4-[10-(4-methyl-piperazin-1-yl)-decanoyl]-3-propyl-hexahydro-pyrrolo[3,2-b]pyrrol-2-one dihydrochloride], the half-maximal inhibitory concentration (IC50) amounted to 80 nM.
The same measure, in the same setting: the result for `CCC[C@H]1C(=O)N(S(C)(=O)=O)[C@H]2CCN(C(=O)CCCCCCCCCN3CCCCC3)[C@H]12` (relative stereo) [Example 70, rel-(3R,3aR,6aS)-1-Methanesulfonyl-4-(10-piperidin-1-yl-decanoyl)-3-propyl-hexahydro-pyrrolo[3,2-b]pyrrol-2-one DL-tartrate] reads 41 nM.
With `CCC[C@H]1C(=O)N(S(C)(=O)=O)[C@H]2CCN(C(=O)CCCCCCCCCN3CCCC3)[C@H]12` (relative stereo) [Example 71, rel-(3R,3aR,6aS)-1-Methanesulfonyl-3-propyl-4-(10-pyrrolidin-1-yl-decanoyl)-hexahydro-pyrrolo[3,2-b]pyrrol-2-one hydrochloride], the 50% inhibitory concentration (IC50) worked out at 35 nM.
On to `CCC[C@H]1C(=O)N(S(C)(=O)=O)[C@H]2CCN(C(=O)CCCCCCCCCN3CCC3)[C@H]12` (relative stereo) [Example 72, rel-(3R,3aR,6aS)-4-(10-Azetidin-1-yl-decanoyl)-1-methanesulfonyl-3-propyl-hexahydro-pyrrolo[3,2-b]pyrrol-2-one DL-tartrate], for which the half-maximal inhibitory concentration (IC50) was determined as 37 nM.
On the same count and under the same terms, the value for `CCC[C@H]1C(=O)N(S(C)(=O)=O)[C@H]2CCN(C(=O)CCCCCN3CCCC3)[C@H]12` (relative stereo) [Example 73, rel-(3R,3aR,6aS)-1-Methanesulfonyl-3-propyl-4-(6-pyrrolidin-1-yl-hexanoyl)-hexahydro-pyrrolo[3,2-b]pyrrol-2-one hydrochloride] was 74 nM.
Still for that read-out and setting: the value for `CCC[C@H]1C(=O)N(S(C)(=O)=O)[C@H]2CCN(C(=O)CCCCCN3CCCCC3)[C@H]12` (relative stereo) [Example 74, rel-(3R,3aR,6aS)-1-Methanesulfonyl-4-(6-piperidin-1-yl-hexanoyl)-3-propyl-hexahydro-pyrrolo[3,2-b]pyrrol-2-one hydrochloride] was 55 nM; that for `CCC[C@H]1C(=O)N(S(C)(=O)=O)[C@H]2CCN(C(=O)CCCCCN(CC)CC)[C@H]12` (relative stereo) [Example 76, rel-(3R,3aR,6aS)-4-(6-Diethylamino-hexanoyl)-1-methanesulfonyl-3-propyl-hexahydro-pyrrolo[3,2-b]pyrrol-2-one DL-tartrate] was 176 nM; that for `CCC[C@H]1C(=O)N(S(C)(=O)=O)[C@H]2CCN(C(=O)CCCCCN(C)C)[C@H]12` (relative stereo) [Example 77, rel-(3R,3aR,6aS)-4-(6-Dimethylamino-hexanoyl)-1-methanesulfonyl-3-propyl-hexahydro-pyrrolo[3,2-b]pyrrol-2-one DL-tartrate] was 134 nM.
On the same count and under the same terms, the value for `CCC[C@H]1C(=O)N(S(C)(=O)=O)[C@H]2CCN(C(=O)CCCCCN3CCC3)[C@H]12` (relative stereo) [Example 78, rel-(3R,3aR,6aS)-4-(6-Azetidin-1-yl-hexanoyl)-1-methanesulfonyl-3-propyl-hexahydro-pyrrolo[3,2-b]pyrrol-2-one DL-tartrate] was 87 nM; that for `CCC[C@H]1C(=O)N(S(C)(=O)=O)[C@H]2CCN(C(=O)CCCCCN3CCN(C)CC3)[C@H]12` (relative stereo) [Example 79, rel-(3R,3aR,6aS)-1-Methanesulfonyl-4-[6-(4-methyl-piperazin-1-yl)-hexanoyl]-3-propyl-hexahydro-pyrrolo[3,2-b]pyrrol-2-one dihydrochloride] was 50 nM; that for `CCC[C@H]1C(=O)N(S(C)(=O)=O)[C@H]2CCN(C(=O)CCCCCN3CCCN(C)CC3)[C@H]12` (relative stereo) [Example 80, rel-(3R,3aR,6aS)-1-Methanesulfonyl-4-[6-(4-methyl-[1,4]diazepin-1-yl)-hexanoyl]-3-propyl-hexahydro-pyrrolo[3,2-b]pyrrol-2-one hydrochloride] was 61 nM.
As for `CCC[C@H]1C(=O)N(S(C)(=O)=O)[C@H]2CCN(C(=O)CCCCCN(C)c3ccccc3)[C@H]12` (relative stereo) [Example 81, rel-(3R,3aR,6aS)-1-Methanesulfonyl-4-[6-(methyl-phenyl-amino)-hexanoyl]-3-propyl-hexahydro-pyrrolo[3,2-b]pyrrol-2-one hydrochloride], the IC50 came out at 67 nM.
On the same count and under the same terms, the value for `CCC[C@H]1C(=O)N(S(C)(=O)=O)[C@H]2CCN(C(=O)CCCN3CCN(C)CC3)[C@H]12` (relative stereo) [Example 82, rel-(3R,3aR,6aS)-1-Methanesulfonyl-4-[4-(4-methyl-piperazin-1-yl)-butyryl]-3-propyl-hexahydro-pyrrolo[3,2-b]pyrrol-2-one dihydrochloride] was 162 nM; that for `CCC[C@H]1C(=O)N(S(C)(=O)=O)[C@H]2CCN(C(=O)CCCN(CC)CC)[C@H]12` (relative stereo) [Example 83, rel-(3R,3aR,6aS)-4-(4-Diethylamino-butyryl)-1-methanesulfonyl-3-propyl-hexahydro-pyrrolo[3,2-b]pyrrol-2-one DL-tartrate] was 198 nM.
Still for that read-out and setting: the value for `CCC[C@H]1C(=O)N(S(C)(=O)=O)[C@H]2CCN(C(=O)CCCN3CCC3)[C@H]12` (relative stereo) [Example 84, rel-(3R,3aR,6aS)-4-(4-Azetidin-1-yl-butyryl)-1-methanesulfonyl-3-propyl-hexahydro-pyrrolo[3,2-b]pyrrol-2-one DL-tartrate] was 134 nM.
`CCC[C@H]1C(=O)N(S(C)(=O)=O)[C@H]2CCN(C(=O)CCCN(C)C)[C@H]12` (relative stereo) [Example 85, rel-(3R,3aR,6aS)-4-(4-Dimethylamino-butyryl)-1-methanesulfonyl-3-propyl-hexahydro-pyrrolo[3,2-b]pyrrol-2-one DL-tartrate]: the IC50 worked out at 182 nM.
As to `CCC[C@H]1C(=O)N(S(C)(=O)=O)[C@H]2CCN(C(=O)CCCN3CCCCCC3)[C@H]12` (relative stereo) [Example 86, hydrochloride], the half-inhibitory concentration (IC50) came out at 103 nM.
The same measure, in the same setting: the value for `CCC[C@H]1C(=O)N(S(C)(=O)=O)[C@H]2CCN(C(=O)CCCN3CCCCC3)[C@H]12` (relative stereo) [Example 87, rel-(3R,3aR,6aS)-1-Methanesulfonyl-4-(4-piperidin-1-yl-butyryl)-3-propyl-hexahydro-pyrrolo[3,2-b]pyrrol-2-one DL-tartrate] was 96 nM.

The same test, now with this note: HNE IC50, 118 nM purified human neutrophil elastase, pH 8.6, 15 min incubation at 30° C., MeO-succinyl-alanyl-alanyl-prolyl-valyl-p-nitroanilide substrate.
Compound `CCC[C@H]1C(=O)N(S(C)(=O)=O)[C@H]2CCN(C(=O)CCCCCN3C4CCCC3CC4)[C@H]12` (relative stereo) [Example 75, rel-(3R,3aR,6aS)-4-(6-8-Aza-bicyclo[3.2. 1]oct-8-yl-hexanoyl)-1-methanesulfonyl-3-propyl-hexahydro-pyrrolo[3,2-b]pyrrol-2-one hydrochloride] yielded an IC50 of 33 nM.

The values above are taken from patent US6215002A, “Pyrrolopyrrolone derivatives as inhibitors of neutrophil elastase” (priority 1996, dated 2001).
